Measured values: patent US10183950B2, “Thienopyrimidine inhibitors of atypical protein kinase C” (Cancer Research Technology Limited, priority 2011, dated 2019)

target: T1, full-length human PKCι (Homo sapiens, UniProt P41743); assay: PKCι IC50 IMAP fluorescence polarisation assay, full-length enzyme; assay type: biochemical; settings: full length PKCi at 15 μM ATP; read-out: IC50 in IMAP assay against full length PKCi
T1 construct: Recombinant, full-length human PKCι expressed in Sf21 insect cells is also commercially available; purchased; host or cells: Sf21 insect cells
T1 sequence (P41743 1-596): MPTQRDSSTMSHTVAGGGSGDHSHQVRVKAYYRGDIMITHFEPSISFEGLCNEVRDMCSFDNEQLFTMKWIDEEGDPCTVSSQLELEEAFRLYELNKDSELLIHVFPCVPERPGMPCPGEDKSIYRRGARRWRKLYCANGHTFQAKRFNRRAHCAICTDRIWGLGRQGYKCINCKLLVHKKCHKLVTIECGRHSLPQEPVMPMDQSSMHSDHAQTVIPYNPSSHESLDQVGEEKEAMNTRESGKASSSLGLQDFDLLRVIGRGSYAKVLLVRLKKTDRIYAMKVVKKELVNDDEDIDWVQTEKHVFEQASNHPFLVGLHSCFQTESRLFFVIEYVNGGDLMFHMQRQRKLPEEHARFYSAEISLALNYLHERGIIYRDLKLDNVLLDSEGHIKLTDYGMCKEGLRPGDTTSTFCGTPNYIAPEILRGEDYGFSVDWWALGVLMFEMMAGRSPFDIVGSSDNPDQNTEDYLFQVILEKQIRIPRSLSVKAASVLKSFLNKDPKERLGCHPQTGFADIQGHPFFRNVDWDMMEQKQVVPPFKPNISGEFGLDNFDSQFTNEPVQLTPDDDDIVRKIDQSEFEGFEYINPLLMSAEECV

IC50 [µM] | SMILES
10 to 40 | O=S(=O)(Nc1cc(-c2nc(N[C@@H]3CCNC3)c3sccc3n2)ccn1)c1ccccc1 [compound 576, N-{4-[4-((R)-Pyrrolidin-3-ylamino)-thieno[3,2-d]pyrimidin-2-yl]-pyridin-2-yl}-benzenesulfonamide]

same assay, conditions: full length PKCi at 15 μM ATP; read-out: IC50 in IMAP assay against full length PKCi (Activity)

IC50 [µM] | SMILES
1 to 10 | NC(CNc1nc(-c2ccncc2)nc2sc3c(c12)CCCC3)Cc1c[nH]c2ccccc12 (stereo in doubt) [compound 63, (S)-3-(1H-Indol-3-yl)-N*1*- (2-pyridin-4-yl-5,6,7,8-tetrahydro-benzo[4,5]thieno[2,3-d]pyrimidin-4-yl)-propane-1,2-diamine]

target: T2, kinase-domain human PKCι (Homo sapiens, UniProt P41743); assay: PKCι IC50 IMAP fluorescence polarisation assay, kinase-domain enzyme; assay type: biochemical; settings: kinase domain PKCi at 2 μM ATP; read-out: IC50 in IMAP assay against kinase domain PKCi
T2 construct: Recombinant, kinase-domain human PKCι is expressed and purified in-house; made in house
T2 sequence (P41743 254-522 limits assumed): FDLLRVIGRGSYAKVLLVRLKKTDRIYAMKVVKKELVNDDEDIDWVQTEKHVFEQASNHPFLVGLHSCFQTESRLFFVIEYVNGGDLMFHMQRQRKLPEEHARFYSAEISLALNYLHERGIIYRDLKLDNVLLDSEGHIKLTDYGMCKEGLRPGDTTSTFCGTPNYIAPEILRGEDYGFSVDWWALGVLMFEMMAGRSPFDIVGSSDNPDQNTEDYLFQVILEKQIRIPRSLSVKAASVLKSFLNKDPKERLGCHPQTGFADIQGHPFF
Protocol: Assays are based on the ability of PKCι to phosphorylate a commercially available peptide substrate in vitro. […] Recombinant, full-length human PKCι expressed in Sf21 insect cells is also commercially available. Recombinant, kinase-domain human PKCι is expressed and purified in-house.
The procedure below explains how dose response curves for inhibitors of PKCι are obtained.
Compounds to be tested are dissolved in 100% DMSO. […] 1 μl is plated into 384 well black low-binding flat bottomed assay plates which are used immediately. Dilutions and additions of compound to assay plates are carried out using Matrix WellMate® and Matrix PlateMate® Plus liquid handling systems.
The final concentration of peptide substrate in the assay is 100 nM. […] Relevant controls are included, namely no compound and no enzyme. […] The reaction is allowed to incubate for 60 minutes at room temperature, before the reaction is stopped and developed by the addition of 20 μl IMAP™ development reagent (Molecular Devices). IMAP development reagent consists of 0.25% (v/v) IMAP progressive binding reagent, 17% (v/v) IMAP progressive binding buffer A and 3% (v/v) IMAP progressive binding buffer B. The plates are then incubated for 2 hours at room temperature before being read using an appropriate plate reader, for example a Molecular Devices HT Analyst or a BMG Pherastar.

IC50 [µM] | SMILES
1 to 10 | C[C@H](N)CNc1nc(-c2ccncc2)nc2c1sc1ncccc12 [compound 378, (S)-N*1*-(2-Pyridin-4-yl-pyrido[3′,2′:4,5]thieno[3,2-d]pyrimidin-4-yl)-propane-1,2-diamine]
10 to 40 | CC(C)(C)c1ccc(-c2cc3nc(-c4ccncc4)nc(N4CCCNCC4)c3s2)cc1 [compound 356, 6-(4-tert-butyl-phenyl)-4-[1,4]diazepan-1-yl-2-pyridin-4-yl-thieno[3,2-d]pyrimidine]
1 to 10 | Cc1cc(C)c2c(n1)sc1c(N3CCNCC3)nc(-c3ccncc3)nc12 [compound 380, 7,9-Dimethyl-4-piperazin-1-yl-2-pyridin-4-yl-pyrido[3′,2′:4,5]thieno[3,2-d]pyrimidine]
0.1 to 1 | Cc1csc2c(NC[C@H](C)N)nc(-c3ccncc3)nc12 [compound 361, (S)-N*1*-(7-Methyl-2-pyridin-4-yl-thieno[3,2-d]pyrimidin-4-yl)-propane-1,2-diamine]
10 to 40 | Clc1cccc2sc3c(OC[C@H]4CCCN4)nc(-c4ccncc4)nc3c12 [compound 478, 9-Chloro-2-pyridin-4-yl-4-((R)-1-pyrrolidin-2-ylmethoxy)-benzo[4,5]thieno[3,2-d]pyrimidine]

same assay, conditions: kinase domain PKCi at 2 μM ATP; read-out: IC50 in IMAP assay against kinase domain PKCi (Activity)

IC50 [µM] | SMILES
1 to 10 | Cc1sc2nc(-c3ccncc3)nc(NC[C@H](C)N)c2c1C [compound 37, (S)-N*1*-(5,6-Dimethyl-2-pyridin-4-yl-thieno[2,3-d]pyrimidin-4-yl)-propane-1,2-diamine]
10 to 40 | Brc1cccc(CN2CCN(c3nc(-c4ccncc4)nc4sc5c(c34)CCCC5)CC2)c1 [compound 127, 4-[4-(3-Bromo-benzyl)-piperazin-1-yl]-2-pyridin-4-yl-5,6,7,8-tetrahydro-benzo[4,5]thieno[2,3-d]pyrimidine]
1 to 10 | N[C@H](COc1nc(-c2ccncc2)nc2sc3c(c12)CCCC3)Cc1ccc(Br)cc1 [compound 171, (S)-1-(4-Bromo-benzyl)-2-(2-pyridin-4-yl-5,6,7,8-tetrahydro-benzo[4,5]thieno[2,3-d]pyrimidin-4-yloxy)-ethylamine]
1 to 10 | N[C@H](COc1nc(-c2ccncc2)nc2sc3c(c12)CCCC3)CC1CCCCC1 [compound 157, (S)-2-Cyclohexyl-1-(2-pyridin-4-yl-5,6,7,8-tetrahydro-benzo[4,5]thieno[2,3-d]pyrimidin-4-yloxymethyl)-ethylamine]
1 to 10 | COc1cccc(C[C@H](N)COc2nc(-c3ccncc3)nc3sc4c(c23)CCCC4)c1 [compound 180, (S)-1-(3-Methoxy-benzyl)-2-(2-pyridin-4-yl-5,6,7,8-tetrahydro-benzo[4,5]thieno[2,3-d]pyrimidin-4-yloxy)-ethylamine]
10 to 40 | N[C@H](COc1nc(-c2ccncc2)nc2sc3c(c12)CCCC3)Cc1c[nH]cn1 [compound 175, (S)-1-(1H-Imidazol-4-ylmethyl)-2-(2-pyridin-4-yl-5,6,7,8-tetrahydro-benzo[4,5]thieno[2,3-d]pyrimidin-4-yloxy)-ethylamine]
0.1 to 1 | c1cc(-c2nc(N3CCCNCC3)c3c4c(sc3n2)CCCC4)ccn1 [compound 14, 4-[1,4]Diazepan-1-yl-2-pyridin-4-yl-5,6,7,8-tetrahydro-benzo[4,5]thieno[2,3-d]pyrimidine]
1 to 10 | Cc1sc2nc(-c3ccncc3)nc(NC[C@@H](C)N)c2c1C [compound 38, (R)-N*1*-(5,6-Dimethyl-2-pyridin-4-yl-thieno[2,3-d]pyrimidin-4-yl)-propane-1,2-diamine]
1 to 10 | CC(C)C[C@@H](N)CNc1nc(-c2ccncc2)nc2sc3c(c12)CCCC3 [compound 16, (R)-4-Methyl-N*1*-(2-pyridin-4-yl-5,6,7,8-tetrahydro-benzo[4,5]thieno[2,3-d]pyrimidin-4-yl)-pentane-1,2-diamine]
10 to 40 | Brc1ccc(CN2CCN(c3nc(-c4ccncc4)nc4sc5c(c34)CCCC5)CC2)cc1 [compound 117, 4-[4-(4-Bromo-benzyl)-piperazin-1-yl]-2-pyridin-4-yl-5,6,7,8-tetrahydro-benzo[4,5]thieno[2,3-d]pyrimidine]
10 to 40 | c1cc(-c2nc(OC[C@@H]3CCCCN3)c3c4c(sc3n2)CCCC4)ccn1 [compound 179, 4-((S)-1-Piperidin-2-ylmethoxy)-2-pyridin-4-yl-5,6,7,8-tetrahydro-benzo[4,5]thieno[2,3-d]pyrimidine]
10 to 40 | CCCN1CCN(c2nc(-c3ccncc3)nc3sc4c(c23)CCCC4)CC1 [compound 133, 4-(4-Propyl-piperazin-1-yl)-2-pyridin-4-yl-5,6,7,8-tetrahydro-benzo[4,5]thieno[2,3-d]pyrimidine]
1 to 10 | CN1CCN(c2nc(-c3ccncc3)nc3sc4c(c23)CCCC4)CC1 [compound 125, 4-(4-Methyl-piperazin-1-yl)-2-pyridin-4-yl-5,6,7,8-tetrahydro-benzo[4,5]thieno[2,3-d]pyrimidine]
1 to 10 | C[C@@H](N)CNc1nc(-c2ccncc2)nc2sc3c(c12)CCCCCC3 [compound 26, (R)-N*1*-(2-Pyridin-4-yl-5,6,7,8,9, 10-hexahydro-11-thia-1,3-diaza-cycloocta[a]inden-4-yl)-propane-1,2-diamine]
1 to 10 | N[C@H](COc1nc(-c2ccncc2)nc2sc3c(c12)CCCC3)c1ccccc1 [compound 155, (S)-1-Phenyl-2-(2-pyridin-4-yl-5,6,7,8-tetrahydro-benzo[4,5]thieno[2,3-d]pyrimidin-4-yloxy)-ethylamine]
1 to 10 | NCCNc1nc(-c2ccncc2F)nc2sc3c(c12)CCCC3 [compound 97, N*1*-[2-(3-fluoro-pyridin-4-yl)-5,6,7,8-tetrahydro-benzo[4,5]thieno [2,3-d]pyrimidin-4-yl]-ethane-1,2-diamine]
10 to 40 | Brc1cnccc1CN1CCN(c2nc(-c3ccncc3)nc3sc4c(c23)CCCC4)CC1 [compound 131, 4-[4-(3-Bromo-pyridin-4-ylmethyl)-piperazin-1-yl]-2-pyridin-4-yl-5,6,7,8-tetrahydro-benzo[4,5]thieno[2,3-d]pyrimidine]
0.1 to 1 | Cc1n[nH]c(C)c1-c1nc(N2CCNCC2)c2c3c(sc2n1)CCCC3 [compound 190, 2-(3,5-Dimethyl-1H-pyrazol-4-yl)-4-piperazin-1-yl-5,6,7,8-tetrahydro-benzo[4,5]thieno[2,3-d]pyrimidine]
0.1 to 1 | C[C@H](N)CNc1nc(-c2cn[nH]c2)nc2sc3c(c12)CCCC3 [compound 187, (S)-N*1*-[2-(1H-Pyrazol-4-yl)-5,6,7,8-tetrahydro-benzo[4,5]thieno[2,3-d]pyrimidin-4-yl]-propane-1,2-diamine]
1 to 10 | C[C@H](N)CNc1nc(-c2ccncc2)nc2sc3c(c12)CCCCCC3 [compound 25, (S)-N*1*-(2-Pyridin-4-yl-5,6,7,8,9, 10-hexahydro-11-thia-1,3-diaza-cycloocta[a]inden-4-yl)-propane-1,2-diamine]
